Data taken from patent US20160325911A1, “ANTIMICROBIAL COMPOSITIONS FOR FOOD PACKAGING CONSISTING OF SALICYLALDEHYDE AND CARVACROL, THYMOL OR THEIR MIXTURE” (INSTITUTO TECNOLÓGICO DEL EMBALAJE, TRANSPORTE Y LOGÍSTICA, priority 2014, published 2016).

Legend:
Assay type in all cases: cell-based
Conditions in all cases: alone or as component of the blend, 20 h at 36° C. in TSB
[1] = system: Pseudomonas aeruginosa (strain ATCC 27853); test: Broth dilution MIC and synergy index against Pseudomonas aeruginosa
Procedure: (§1) Solutions containing carvacrol, thymol and salicylaldehyde were assessed for antimicrobial activity against three different reference microorganisms: • Gram negative bacteria—Escherichia coli (strain ATCC 8739) • Gram negative bacteria—Pseudomonas aeruginosa (strain ATCC 27853) • Gram positive bacteria—Staphylococcus aureus (strain ATCC6538)
(§2) The microorganisms were collected from the “Colección Española de Cultivos Tipo” (CECT), University of Valencia. They were collected in the form of a lyophilized inoculum and were refreshed by regular seeding in solid culture media. After the grown, the stock culture was kept under refrigeration. Prior to the analysis, the microorganisms were recultured 3-4 times by diluting colonies in tryptic soy broth (TSB) and incubating overnight at 36° C.
(§3) The day prior to the assay, the colonies are touched with a loop and transferred to tryptic soy broth (TBS) (100 mL). The broth is incubated at 36° C. overnight until the growth reaches a turbidity equal or similar to 10^9 colony-forming units per millilitre (CFU/mL). The culture is adjusted to give a turbidity equivalent to 0.18 absorbance units in order to confirm the inoculum is in the exponential growth phase (around 10^5-10^6 CFU/mL). The measurement is carried out by using a UV-VIS spectrometer, operating at 550 nm and a 1-cm path cell. […]
(§4) The antimicrobial efficacy of Carvacrol, Thymol and Salycylaldehyde and their blends, was determined as Minimum Inhibitory Concentration (MIC). MIC is recorded as the lowest product concentration that inhibits growth. […]
(§5) Where: • CM is the MIC of the substance n when used in a blend, that is, in combination with the rest of antimicrobial compounds analysed. • CS is the MIC of the substance when used alone.
(§6) SI below 1 indicates synergy effect and p-value has been calculated as the probability of obtaining the observed sample results (or a more extreme result) when the null hypothesis is actually true. […]

[2] = system: Escherichia coli (strain ATCC 8739); test: Broth dilution MIC and synergy index against Escherichia coli
Procedure: as §1, §2, §3, §4, §5, §6

[3] = system: Staphylococcus aureus (strain ATCC6538); test: Broth dilution MIC and synergy index against Staphylococcus aureus
Procedure: as §1, §2, §3, §4, §5, §6

[4] = amount of salicylaldehyde at the MIC

For `Cc1ccc(C(C)C)cc1O` [Carvacrol, carvacrol], the “MIC Pseudomonas aeruginosa, Carvacrol” value ([1]; amount of carvacrol at the MIC) was 7.5 mg, the “MIC Escherichia coli, Carvacrol” value ([2]; amount of carvacrol at the MIC) was 3 mg and the “MIC Staphylococcus aureus, Carvacrol” value ([3]; amount of carvacrol at the MIC) was 2.1 mg.
With `O=Cc1ccccc1O` [Salicylaldehyde, salicylaldehyde] the “MIC Pseudomonas aeruginosa, Salicylaldehyde” value [1, 4] was 2.25 mg, the “MIC Escherichia coli, Salicylaldehyde” value [2, 4] was 4.75 mg and the “MIC Staphylococcus aureus, Salicylaldehyde” value [3, 4] was 4.75 mg.
For `Cc1ccc(C(C)C)c(O)c1` [Thymol, thymol], the “MIC Pseudomonas aeruginosa, Thymol” value ([1]; amount of thymol at the MIC) was 4.5 mg, the “MIC Escherichia coli, Thymol” value ([2]; amount of thymol at the MIC) was 2 mg and the “MIC Staphylococcus aureus, Thymol” value ([3]; amount of thymol at the MIC) was 1.1 mg.
